Results from patent US5138101A, “Recovery of high-boiling aldehydes from rhodium-catalyzed hydroformylation processes” (Eastman Kodak Company, priority 1991, dated 1992).

Assay: Partitioning (partition coefficient, Kp) of hydroformylation products and hydroformylation solvent between hydroformylation solvent phase and alkanol/water extraction solution phase
Type: physicochemical
Excerpt: The extraction process described herein is the equilibration of a particular compound dissolving into two separate liquid phases. The effectiveness of the present extraction process may be measured in terms of the partition coefficient (Kp) for a compound "X" which is defined as: [formula] […] High Kp values give high extraction efficiencies requiring lower amounts of extraction solution. Similarly, it is desirable that the Kp of the hydroformylation solvent be a low value. This simplifies purification of the aldehyde products down-stream. In the hydroformylation of diolefins to dialdehydes, it also is desirable to have Kp values for the dialdehyde products larger than the Kp values of the intermediate mono-aldehyde mono-olefin (formyl-olefin) intermediate formed in the hydroformylation reaction. This permits recycling of the formyl-olefin to the hydroformylation reactor in the hydroformylation solvent for further reaction to the desired dialdehyde product, while selectively extracting the desired di-aldehyde product. Likewise, for the same reason, it is desirable to have low Kp values for the olefin or polyolefin feedstocks used in the process.
The extraction examples were carried out in a 300 mL, 3-neck, glass flask equipped with a Teflon magnetic stir bar, a thermometer to measure the temperature of the liquid, a septum for the use of a syringe, a heating mantle and a nitrogen bubbler blanket for the system. […] […] The mixture was stirred at 25° C. for 30 minutes to reach equilibrium, stirring was stopped, and the mixture was allowed to separate into 2 layers (phases) over a 30 minute period of time. […] Samples of each phase were taken with a syringe and chromatographed on a Hewlett Packard Model 5730 capillary FID gas chromatograph. The instrument used a 30 meter DB-1 column (Supelco.) with a programming rate of a 4 minute hold at 70° C. with a programming rate of 8° C./minute to 250° C. The calculations for the weights of hydroformylation products in each phase were carried out using standard procedures using the dodecane as an internal standard for the catalyst layer and methanol as the internal standard for the aqueous layer. The initial volumes of the two phases were used for estimation of the volumes of the two phases at equilibrium to obtain the concentrations of the products in each phase.
The partition coefficients (Kp) were calculated for the C9-enal and C10-dial products for equilibrium between the dodecane hydroformylation solvent and the extraction solution phases at 25° C.
The two phases in the flask were heated to and maintained at 53° C. with stirring for 30 minutes to reach equilibrium. The mixture was allowed to separate into 2 layers at 53° C. and each layer was sampled and analyzed as described above. […] The partitioning procedure was repeated at 70° C.

In the case of `CC(C)c1ccc(C(C)C)cc1` [p-diisopropylbenzene], the “Partition Coefficient” value (Example 3, Ref. Ex. 19, MeOH:water 3:1, 29° C.) is reported as 0.075, the “Partition Coefficient” value (Example 4, Ref. Ex. 19, MeOH:water 3:1, 58° C.) is reported as 0.118 and the “Partition Coefficient” value (Example 5, Ref. Ex. 19, MeOH:water 1.5:1, 58° C.) is reported as 0.050. The “Partition Coefficient” value (Example 6, Ref. Ex. 19, MeOH:water 1.5:1, 31° C.) was 0.018, the “Partition Coefficient” value (Example 18, Ref. Ex. 24, EtOH:water 7:4, 52° C.) was 0.033 and the “Partition Coefficient” value (Example 19, Ref. Ex. 24, EtOH:water 7:4, 32° C.) was 0.009. For the same molecule, the “Partition Coefficient” value (Example 24, Ref. Ex. 19, MeOH:water 3:1, 29° C.) was 0.075, the “Partition Coefficient” value (Example 25, Ref. Ex. 19, MeOH:water 3:1, 58° C.) was 0.118 and the “Partition Coefficient” value (Example 26, Ref. Ex. 19, MeOH:water 1.5:1, 58° C.) was 0.050. For the same molecule, the “Partition Coefficient” value (Example 27, Ref. Ex. 19, MeOH:water 1.5:1, 31° C.) was 0.018, the “Partition Coefficient” value (Example 28, Ref. Ex. 24, EtOH:water 3:1, 48° C.) was 0.298 and the “Partition Coefficient” value (Example 29, Ref. Ex. 24, EtOH:water 3:1, 33° C.) was 0.229. For the same molecule, the “Partition Coefficient” value (Example 30, Ref. Ex. 24, EtOH:water 7:4, 52° C.) was 0.033, the “Partition Coefficient” value (Example 31, methanol/water 37/12 mL, 50° C., Na 0) was 0.096 and the “Partition Coefficient” value (Example 32, 50° C., Na 82 mg/L as 2-ethylhexanoate) was 0.125. For the same molecule, the “Partition Coefficient” value (Example 33, 50° C., Na 164 mg/L as 2-ethylhexanoate) was 0.115, the “Partition Coefficient” value (Example 34, 50° C., Na 327 mg/L as 2-ethylhexanoate) was 0.131 and the “Partition Coefficient” value (Example 35, 50° C., Na 653 mg/L as 2-ethylhexanoate) was 0.137. For the same molecule, the “Partition Coefficient” value (Example 36, 50° C., Na 1307 mg/L as 2-ethylhexanoate) was 0.063, the “Partition Coefficient” value (Example 37, methanol/water 37/12 mL, 50° C., Na 0) was 0.064 and the “Partition Coefficient” value (Example 38, 50° C., Na 82 mg/L as oleate) was 0.083. The “Partition Coefficient” value (Example 39, 50° C., Na 164 mg/L as oleate) was 0.062, the “Partition Coefficient” value (Example 40, 50° C., Na 327 mg/L as oleate) was 0.083 and the “Partition Coefficient” value (Example 41, 50° C., Na 653 mg/L as oleate) was 0.052. The “Partition Coefficient” value (Example 42, 50° C., Na 1307 mg/L as oleate) was 0.063, the “Partition Coefficient” value (Example 43, methanol/water 37/12 mL, 50° C., Na 0) was 0.074 and the “Partition Coefficient” value (Example 44, 50° C., Na 82 mg/L as n butyrate) was 0.063. The “Partition Coefficient” value (Example 45, 50° C., Na 164 mg/L as n butyrate) was 0.073, the “Partition Coefficient” value (Example 46, 50° C., Na 327 mg/L as n butyrate) was 0.053 and the “Partition Coefficient” value (Example 47, 50° C., Na 653 mg/L as n butyrate) was 0.051. The “Partition Coefficient” value (Example 48, 50° C., Na 1307 mg/L as n butyrate) was 0.038, the “Partition Coefficient” value (Example 49, methanol/water 37/27 mL, Na 0) was 0.0164 and the “Partition Coefficient” value (Example 50, methanol/water 37/27 mL, Na 100 as oleate) was 0.0210. The “Partition Coefficient” value (Example 51, methanol/water 37/27 mL, Na 200 as oleate) was 0.0210, the “Partition Coefficients” value (Example 52, Ref. Ex. 1, MeOH:water 3:1, 50° C., Na 0) was 0.115 and the “Partition Coefficients” value (Example 54, Ref. Ex. 1, Na 164 mg/L) was 0.073. The “Partition Coefficients” value (Example 56, Ref. Ex. 11, Na 0) was 0.081, the “Partition Coefficients” value (Example 58, Ref. Ex. 11, Na 164 mg/L) was 0.073 and the “Partition Coefficients” value (Example 60, Ref. Ex. 12, Na 0) was 0.071. For the same molecule, the “Partition Coefficients” value (Example 62, Ref. Ex. 12, Na 164 mg/L) was 0.067, the “Partition Coefficients” value (Example 64, Ref. Ex. 7, Na 0) was 0.056 and the “Partition Coefficients” value (Example 66, Ref. Ex. 7, Na 164 mg/L) was 0.072. For the same molecule, the “Partition Coefficients” value (Example 68, Ref. Ex. 13, Na 0) was 0.076, the “Partition Coefficients” value (Example 70, Ref. Ex. 13, Na 164 mg/L) was 0.060 and the “Partition Coefficient” value (Example 79, VCH product, Ref. Ex. 3, 40 mL methanol, 10 mL water, 50° C.) was 0.0859. For the same molecule, the “Partition Coefficient” value (Example 80, as Example 79 plus 10 mL water) was 0.0233, the “Partition Coefficient” value (Example 81, as Example 80 plus 10 mL water) was 0.0050 and the “Partition Coefficient” value (Example 82, as Example 81 plus 10 mL water) was 0.0017. For the same molecule, the “Partition Coefficient” value (Example 83, DCPD product, Ref. Ex. 4, procedure of Examples 79-82) was 0.0724, the “Partition Coefficient” value (Example 84, DCPD product, Ref. Ex. 4, procedure of Examples 79-82) was 0.0469 and the “Partition Coefficient” value (Example 85, DCPD product, Ref. Ex. 4, procedure of Examples 79-82) was 0.0269. For the same molecule, the “Partition Coefficient” value (Example 86, CDDT product, Ref. Ex. 2, 37 mL methanol, 12 mL water, 25° C.) was 0.0297, the “Partition Coefficient” value (Example 87, as Example 86 plus 10 mL methanol) was 0.077 and the “Partition Coefficient” value (Example C-7, Ref. Ex. 19, DEG:water 3:1, 30° C.) was 0.128. The “Partition Coefficient” value (Example C-8, Ref. Ex. 19, DEG:water 1.5:1, 25° C.) was 0.030, the “Partition Coefficient” value (Example C-9, Ref. Ex. 10, PrOH:water 3:1, 50° C.) was 0.055 and the “Partition Coefficient” value (Example C-10, Ref. Ex. 10, PrOH:water 1.5:1, 50° C.) was 0.018. For the same molecule, the “Partition Coefficient” value (Example C-11, Ref. Ex. 10, PrOH:water 1:1, 50° C.) was 0.013, the “Partition Coefficient” value (Example C-16, Ref. Ex. 19, DEG, no water, 58° C.) was 0.128 and the “Partition Coefficient” value (Example C-17, Ref. Ex. 19, DEG, no water, 33° C.) was 0.128. The “Partition Coefficient” value (Example C-18, Ref. Ex. 19, DEG:water 3:1, 30° C.) was 0.030, the “Partition Coefficient” value (Example C-19, Ref. Ex. 19, DEG:water 3:1, 60° C.) was 0.014 and the “Partition Coefficient” value (Example C-20, Ref. Ex. 19, DEG:water 1.5:1, 60° C.) was 0.0061. For the same molecule, the “Partition Coefficient” value (Example C-21, Ref. Ex. 19, DEG:water 1.5:1, 25° C.) was 0.0030, the “Partition Coefficient” value (Example C-22, Ref. Ex. 10, PrOH:water 3:1, 50° C.) was 0.055 and the “Partition Coefficient” value (Example C-23, Ref. Ex. 10, PrOH:water 1.5:1, 50° C.) was 0.0182. The “Partition Coefficient” value (Example C-24, Ref. Ex. 10, PrOH:water 1:1, 50° C.) was 0.0132.
